# Results as given in patent publication US7935726B1, “Tricyclic pyrones” (Kansas State University Research Foundation, priority 1999, dated 2011).
# Read-outs that look alike come from different tables or passages of the source.
# Assays:
# [1] = system: MC65 cells; experiment: protection from APP C99-induced cell death in MC65 cells; assay type: cell-based; conditions: for EC50: MC65 cells in the absence of tetracycline
# Source text: The reported procedures for the inhibitory activities of ACAT (Tomoda, H.; Nishida, H.; Masuma, R.; Cao, J.; Okuda, S.; Omura, S. J. Antibiot. 1991, 44, 136-143), CETP (Tomoda, H.; Tabata, N.; Masuma, R.; Si, S.-Y.; Omura, S. J. Antibiot. 1998, 51, 618-623; D. H. Hua et al. Tetrahedron 2003, 59, 4795-4803), L1210 tumor cells (Perchellet, E. M.; Ladesich, J. B.; Magill, M. J.; Chen, Y.; Hua, D. H.; Perchellet, J. P. Anti-Cancer Drugs 1999, 10, 489-504), and APP C99-induced cell death (Jin, L.-W.; Hua, D. H.; Shie, F.-S.; Maezawa, I.; Sopher, B.; Martin, G. M. J. Mol. Neurosci. 2002, 19, 57-61) were followed. […]
# [2] = system: L1210 tumor cells; experiment: cytotoxicity to L1210 tumor cells; assay type: cell-based
# Source text: (§1) The reported procedures for the inhibitory activities of ACAT (Tomoda, H.; Nishida, H.; Masuma, R.; Cao, J.; Okuda, S.; Omura, S. J. Antibiot. 1991, 44, 136-143), CETP (Tomoda, H.; Tabata, N.; Masuma, R.; Si, S.-Y.; Omura, S. J. Antibiot. 1998, 51, 618-623; D. H. Hua et al. Tetrahedron 2003, 59, 4795-4803), L1210 tumor cells (Perchellet, E. M.; Ladesich, J. B.; Magill, M. J.; Chen, Y.; Hua, D. H.; Perchellet, J. P. Anti-Cancer Drugs 1999, 10, 489-504), and APP C99-induced cell death (Jin, L.-W.; Hua, D. H.; Shie, F.-S.; Maezawa, I.; Sopher, B.; Martin, G. M. J. Mol. Neurosci. 2002, 19, 57-61) were followed.
# [3] = system: N/N 1003 lens epithelial cells; experiment: tissue culture assay: galactitol formation from galactose in lens epithelial cells (GC/MS); assay type: cell-based; conditions: for inhibition at 10 µM: 10 uM inhibitor, 40 mM galactose media, lens epithelial cells, number of trials in parenthesis
# Description: The activity of the drugs is tested in various ways, including tissue culture assays and assays testing aldose reductase inhibition. For the tissue culture assay, a lens epithelial cell line is grown in galactose with or without the drug. Cells are tested for polyol accumulation by GC/mass spectrometry. Levels of PKC are tested in homogenized cell pellets or in samples of lens, retina or sciatic nerves from treated patients. Tissue is homogenized and tested for PKCγ levels using Western blots. These procedures are described in more detail below.
# The ability of the drugs to inhibit galactitol formation from galactose was also studied in N/N 1003 lens epithelial cells. Two sets of lens cells were grown in media with […] 40 mM galactose. Various concentrations of inhibitors were added initially and the cells were grown for 48 hours. The cells were lysed and galactose and galactitol were extracted out and the concentrations were determined using gas chromatography and mass spectrometry by silylating the crude extract with excess of trimethylsilyl chloride, trimethylsilyl imidazole and pyridine at 70° C. for 1 h.
# 40 mM galactose media was supplemented with 10 uM inhibitor and fed to lens epithelial cells for 48 hours.
# [4] = pathology studies in treated rats; assay type: in vivo; conditions: 100 mg/Kg body weight per day, 9 days
# [5] = system: PKC-γ; experiment: galactose-fed rats: PKC-γ levels in lens and sciatic nerve (Western blot); assay type: in vivo, Sprague Dawley Rats; conditions: high galactose feed, 100 mg/Kg body weight per day, FIG. 3B
# Description: In order to test for in vivo effects of ARI's, rats were fed a 40% galactose diet for 9 days and the accumulation of galactitol was measured in lens tissue. This tissue has high aldose reductase activity and the eye has a separate vasculature. Thus, if the ARI works in the lens this is a good indication that the drug works and can penetrate to most tissues.
# The specific experimental details follow. […] The rats were given food supplemented with inhibitor in the morning and then given food and water ad libitum the rest of the day. They were kept on a 12-hour on and 12-hour off light cycle. After 9 days, the rats were sacrificed with an overdose of CO2 and then eyes were taken and immediately frozen on dry ice for later polyol and PKC analyses. Experiments on all rats conformed to the ARVO resolution on the Use of Animals in Research.
# The lenses were removed from the enucleated eyes and weighed. They were put in 200 μL lysis buffer (50 mM Tris, 100 mM NaCl, M-Per Pierre Zwitterionic detergent, 5 mM NaF, 1 mM Na3VO4, 40 mM β-glycerophosphate, 6 μg/mL chymotrypsin, 10 μM3,4-dichlorocoumarin, 10 μM E-64, 1 μg/mL leupeptin, 1 μg/mL pepstatin A, 1 μg/mL aprotinin, 1 mM PMSF, and 5 mM EDTA (Sigma). The lenses were then ground using a tissue grinder until they were a uniformly white solution. They were then sonicated to make certain all the cells were disrupted. The mixture was then centrifuged for 20 minutes at 0° C. at […]. The supernatant was then analyzed for protein content using […] (Pierce). Equal amounts of protein were loaded and separated on a 10% SDS polyacrylamide gel. The proteins were transferred to nitrocellulose (Midwest Scientific; pore size 0.45 μm). The western was blocked with a 3% milk solution, and then mouse anti-PKC γ (1:5000) or PKC α (1:1000) antisera (Transgenic Laboratories) were applied in a 3% milk solution overnight. […]
# The effects of streptozotocin induced diabetes on PKC-γ levels in rat lens have been measured. […]
# [6] = water solubility
# [7] = canine study: polyol level in dog lens (GC/MS); assay type: in vivo, Beagle dogs
# Description: (§2) A pilot study was conducted to determine initial toxicity and efficacy in a Beagle model. The study was conducted at the fully accredited facility at the Kansas State University Veterinary Clinic. The dogs were fed a 40% galactose diet for 6 weeks. These dogs developed cataracts. Compound 1 was administered orally at 100 mg/kg body weight/day for 6 weeks. At this dose, the polyol levels were 50% normalized (FIG. 4) and PKCγ levels were 80% normalized (FIG. 5). […] The PkC-γ levels of dogs treated with galactose is 30.8%, G+I is 84.1% and C+I is 79.7%. Additional testing at higher doses is planned to determine optimal dose for efficacy with no or low toxicity. These experiments are well within the skill and experience of one of ordinary skill in the art and can be performed without undue experimentation.
# [8] = system: PKC-γ; experiment: canine study: PKC-γ level of dog lens (Western blot); assay type: in vivo, Beagle dogs
# Description: as §2
# [9] = system: bovine lens epithelial cells; experiment: toxicity in bovine lens epithelial cells; assay type: cell-based; conditions: up to 100 uM added to bovine lens epithelial cells
# [10] = biological target: T1, Human aldose reductase (AR) (Homo sapiens, UniProt P15121); experiment: human AR inhibition assay (enzyme assay, NADPH absorption at 340 nm); assay type: biochemical; conditions: Table 3; average of three assays; read-out: IC50, Inhibition of Human Retina Aldose Reductase
# T1 construct: made in house; host or cells: E. coli
# Description: Human aldose reductase (AR) was obtained from overexpression of the human AR gene in an E coli system and was purified by column chromatography using a talon metal affinity column and eluted with a gradient mixture of Tris, NaCl buffer and imidazole solution. The human AR inhibition assay was conducted as follows. In a sample cuvette, 25 mM of D-xylose (75 mg/mL) and 0.15 mM of reduced nicotinamide adenine dinucleotide phosphate (NADPH) (4 mg/mL), and various amount of the inhibitor [in PBS (phosphate buffer saline) solution; the concentration of the inhibitor was determined using UV spectroscopy based on εmax at λmax of the drug] in 700 uL of PBS (a solution made of 1.44 g of Na2HPO4, 0.24 g KH2PO4, 0.2 g KCl, and 8 g NaCl in 1 L of distilled water) buffer (pH=6.1) solution and 200 uL of the AR enzyme (a final volume of 1 mL was obtained). The intensity of absorption of NADPH (λmax=340 nm) was measured. When xylose is reduced to xylitol, NADPH is converted into NADP and the absorption at 340 nm decreases. When AR is inhibited by the drug, the absorption at 340 nm of NADPH remains unchanged. Each assay was repeated three times and an average IC50 value was obtained.
# [11] = biological target: T2, CETP (Homo sapiens, UniProt P11597); experiment: inhibition of CETP; assay type: biochemical
# T2 sequence (P11597 18-493): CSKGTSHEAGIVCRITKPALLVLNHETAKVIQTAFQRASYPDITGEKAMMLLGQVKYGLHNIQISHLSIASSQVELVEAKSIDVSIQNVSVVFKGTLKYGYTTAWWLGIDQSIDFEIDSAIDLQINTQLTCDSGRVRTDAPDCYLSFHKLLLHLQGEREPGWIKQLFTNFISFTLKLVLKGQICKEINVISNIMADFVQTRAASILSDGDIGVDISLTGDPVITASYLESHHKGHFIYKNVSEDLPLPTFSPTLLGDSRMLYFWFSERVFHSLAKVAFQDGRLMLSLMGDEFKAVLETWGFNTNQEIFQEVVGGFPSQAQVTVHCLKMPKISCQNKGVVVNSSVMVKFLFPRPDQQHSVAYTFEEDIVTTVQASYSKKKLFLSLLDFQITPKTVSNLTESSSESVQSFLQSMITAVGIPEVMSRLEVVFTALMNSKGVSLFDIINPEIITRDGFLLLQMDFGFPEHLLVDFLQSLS
# Source text: as §1
# (§3) ACAT mediates the esterification of intracellular cholesterol and is believed to play a key role in lipoprotein metabolism and atherogenesis (for a review: Suckling, K. E.; Stange, E. F. J. Lipid Res. 1985, 26, 647-671). […] The inhibition of CETP with these three compounds was then studied. CETP, a hydrophobic neutral glycoprotein, mediates the transfer of cholesteryl ester from high-density lipoprotein to low-density lipoprotein (For a review: Tall, A. R. J. Lipid Res. 1993, 34, 1255-1274). […] The N-(p-nitrophenyl)aspartamide portion of 104 was attached in order to study whether 104 was a substrate of […] (For a review: VIIIa, P.; Kaufmann, S. H.; Earnshaw, W. C. Trends Biochem. Sci. 1997, 22, 388-393). […] Compound 105 is cytotoxic to L1210 tumor cells, with IC50=30 μM. Aggarwal et al., J. Chem. Soc., Perkin Trans I (1999) 3315-3321 is incorporated by reference to the extent not inconsistent with the disclosure herewith.
# [12] = system: caspase 103; experiment: in vitro caspase substrate study (release of p-nitroaniline); assay type: biochemical
# Source text: as §3
# [13] = system: ACAT; experiment: inhibition of ACAT; assay type: biochemical
# [14] = Galactosemic dogs, with inhibitor
# [15] = dogs, 40% galactose diet 6 weeks, orally 100 mg/kg body weight/day for 6 weeks
compound,measurement,setting,value
"Cc1cc2c(c(=O)o1)C=C1CC[C@@H](CC(C)n3cnc4c(N)ncnc43)C[C@@H]1O2 (mixture of isomers) [Compound 105, (5aS,7S)-7-[(1R) and (1S)-2-(N-9-Adenyl)-1-methylethyl]-3-methyl-1H,7H-5a,6,8,9-tetrahydro-1-oxopyrano[4,3-b][1]benzopyran]",fold less active than 106 (EC50),[1]; MC65 cells,20 fold
same,EC50,[1],3 µM
same,IC50,"[2]; read-out: IC50, cytotoxic to L1210 tumor cells",30 µM
"O=C(O)Cc1cc2c(c(=O)o1)C=C1CCCCC1O2 (centres unmarked) [Compound 1, {1H,7H-5a,6,8,9-Tetrahydro-1-oxopyrano[4,3-b][1]benzopyran-3-yl}acetic acid]",% galactitol,"[3]; 1 uM compound 1, 40 mM galactose, 48 hours",80%
same,% galactitol,"[3]; 10 uM compound 1, 40 mM galactose, 48 hours",30%
same,"concentration of galactitol relative to galactose (GC/MS, FIG. 1B)","[3]; 10 uM, 40 mM galactose, 48 hours",decreases the concentration of galactitol relative to galactose
same,IC50,[3]; Epithelial cell,6 µM
same,inhibition at 10 µM,"[3]; Epithelial cell, 48 hours",80 ± 10%
same,toxicity to the rats (pathology studies),[4],not toxic to the rats
same,PKC-γ levels in sciatic nerve cells,[5],normalized
same,water solubility,[6],water soluble
same,"Galactitol (polyol) (GC/MS, dog lens)",[7]; [14],27.3%
same,"Galactose (GC/MS, dog lens)",[7]; [14],72.7%
same,polyol levels normalized,[7]; [15],50%
same,"PKC-γ level of dog lens (read-out of intensities, FIG. 5)",[8]; control with inhibitor 1 (C+I),79.7%
same,PKCγ levels normalized,[8]; [15],80%
same,"PKC-γ level of dog lens (read-out of intensities, FIG. 5)",[8]; galactose and inhibitor 1 (G+I),84.1%
same,toxicity,[9],no toxicity was found
same,IC50,[10],0.002 µM
"O=C(O)C(O)Cc1cc2c(c(=O)o1)C(O)C1CCCCC1O2 (centres unmarked) [Compound 2, 2-Hydroxy-3-{1H,7H-5a,6,8,9,10,11-hexahydro-10-hydroxy-1-oxopyrano[4,3-b][1]benzopyran-3-yl}-propanoic acid]",inhibition at 10 µM,"[3]; Epithelial cell, 48 hours",< 10%
same,water solubility,[6],water soluble
same,toxicity,[9],no toxicity was found
same,IC50,[10],0.02 µM
C=C(C)[C@H]1CCC2=Cc3c(cc(CC(=O)N[C@@H](CC(=O)O)C(=O)Nc4ccc([N+](=O)[O-])cc4)oc3=O)O[C@H]2C1 [Compound 104],IC50,[11],> 180 µM
same,substrate of caspase 103 (release of p-nitroaniline),[12],not a substrate
same,IC50,[13],168 µM
same,protection of MC65 cells from death (in words),"[1]; MC65 cells conditionally expressing partial APP fusion protein, absence of tetracycline",protected from death
same,EC50,[1],2 µM
"CC(=O)OCC1(C)C(OC(C)=O)CCC2(C)C1CC(OC(C)=O)C1(C)Oc3cc(-c4cccnc4)oc(=O)c3C(O)C21 (centres unmarked) [Pyripyropene A, reference compound]",IC50,"[2]; Mus musculus, L1210, Table 9, read-out: C50, L1210 Leukemic Cells",> 100 µM
